# Biological target: T1, human GluR2B receptor (Homo sapiens, UniProt P42262)
# T1 construct: transported to the cell surface in mature form, lacking the signal peptide and consisting of 862 amino acids; expressed in transfected cells; host or cells: COS-1 (ATCC CRL 1650), transient, plasmid pcDNA1/humGluR2B
# Experiment: ligand binding assay (NMDA) with membranes of cells producing human GluR2B
# Conditions: method for NMDA not described
# T1 sequence (P42262 25-883): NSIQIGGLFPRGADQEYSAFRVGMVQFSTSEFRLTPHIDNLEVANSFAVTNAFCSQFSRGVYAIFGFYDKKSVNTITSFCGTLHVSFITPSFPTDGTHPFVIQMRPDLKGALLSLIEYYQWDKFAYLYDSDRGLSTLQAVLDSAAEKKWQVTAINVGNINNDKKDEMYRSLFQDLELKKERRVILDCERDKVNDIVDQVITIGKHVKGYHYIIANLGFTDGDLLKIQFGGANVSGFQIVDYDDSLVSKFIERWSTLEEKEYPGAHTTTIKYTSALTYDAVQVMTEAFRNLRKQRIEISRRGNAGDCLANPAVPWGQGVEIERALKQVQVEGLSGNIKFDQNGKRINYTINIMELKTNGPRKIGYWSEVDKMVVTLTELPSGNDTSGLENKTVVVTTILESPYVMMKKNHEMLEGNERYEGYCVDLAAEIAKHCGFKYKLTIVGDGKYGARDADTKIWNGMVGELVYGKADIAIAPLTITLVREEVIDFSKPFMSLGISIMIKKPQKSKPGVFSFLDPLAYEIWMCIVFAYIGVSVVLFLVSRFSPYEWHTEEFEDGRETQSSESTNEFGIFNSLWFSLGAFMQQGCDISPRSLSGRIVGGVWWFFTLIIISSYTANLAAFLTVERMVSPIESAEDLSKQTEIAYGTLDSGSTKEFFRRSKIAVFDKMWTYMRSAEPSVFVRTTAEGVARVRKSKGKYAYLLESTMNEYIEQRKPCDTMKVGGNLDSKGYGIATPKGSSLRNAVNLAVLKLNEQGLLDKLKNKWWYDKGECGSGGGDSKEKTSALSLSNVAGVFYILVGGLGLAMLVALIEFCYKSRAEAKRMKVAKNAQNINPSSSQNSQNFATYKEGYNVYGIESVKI
smiles,measurement,value
"CN[C@H](CC(=O)O)C(=O)O [NMDA, N-methyl-D-aspartate]",binding to human GluR2B receptor (in words),little or no demonstrable binding

# — patent US6399313B1, “AMPA-binding human GluR2 receptors” (NPS Allelix Corp., priority 1992, dated 2002)
